System: TNFα released by PBMCs stimulated by LPS
Test: Inhibition of the release of TNFα in peripheral blood mononuclear cells (PBMCs) stimulated by lipopolysaccharide (LPS), ELISA
Format: cell-based, human
Conditions: LPS 0.1 μg/mL, 20 hours incubation; for Inhibition Degree: compound concentration 3.0 μM; for EC50: concentration giving 50% TNFα inhibition
Description: Pharmacological Research: Effects on the releasing of TNFα in peripheral blood mononuclear cells (PBMCs) stimulated by lipopolysaccharide (LPS).
Cytokine TNFα released by PBMCs in the peripheral blood stimulated by lipid polysaccharide (LPS) in vitro was studied.
PBMCs were collected from blood of at least three volunteers pretreated with heparin by a gradient separation method, and washed three times with a 1640 culture medium (10% calf serum, 2 mM L-glutamine, […] mercaptoethanol, 50 μg/mL streptomycin, and 50 U/mL penicillin). The obtained PBMCs were then placed into a 24-well cell culture plate and the concentration was adjusted to 1×10^6 cells/mL with 1640 culture medium. The compounds to be tested were dissolved in dimethylsulfoxide to obtain a solution having a required concentration. The solution was added to the above-mentioned cell culture medium and cultured in an incubator (5% CO2, 90% humidity) for 1 hour. Then, LPS (Sigma) was added until the concentration reached 0.1 μg/mL (except for the control).
After 20 hours incubation, the content of TNFα in the supernatant of the PBMC culture medium was assayed by ELISA kit (America Genzyme Co) using standard method. The TNFα inhibition rate was calculated by measured value of the control well (not treated) and the measured value of the test wells (treated with the test compound). The concentration of compounds giving a 50% TNFα inhibition (IC50 value) was calculated using nonlinear regression analysis. Each concentration was determined twice and an average value was practicable.

Structure (SMILES)	Inhibition Degree	other results
O=C1CCC(N2Cc3cscc3C2=O)C(=O)N1 (stereo not shown) [Example 9, 3-(4-oxo-4H-thiophene[3,4-c]pyrrol-5(6H)-yl)piperidine-2,6-dione]	32%	
CN1C(=O)CCC(N2Cc3cscc3C2=O)C1=O (stereo not shown) [Example 10, 1-methyl-3-(4-oxo-4H-thiophene[3,4-c]pyrrol-5(6H)-yl)piperidine-2,6-dione]	28%	
CCCN1C(=O)CCC(N2Cc3cscc3C2=O)C1=O (stereo not shown) [Example 11, 3-(4-oxo-4H-thiophene[3,4-c]pyrrol-5(6H)-yl)-1-propylpiperidine-2,6-dione]	22%	
CC1(N2Cc3cscc3C2=O)CCC(=O)NC1=O (stereo not shown) [Example 16, 3-methyl-3-(4-oxo-4H-thiophene[3,4-c]pyrrole-5(6H)-yl)piperidine-2,6-dione]	38%	
O=C1CCC(N2Cc3c(csc3[N+](=O)[O-])C2=O)C(=O)N1 (stereo not shown) [Example 17, 3-(1-nitro-4-oxo-4H-thiophene[3,4-c]pyrrole-5(6H)-yl)piperidine-2,6-dione]	19%	
Nc1scc2c1CN(C1CCC(=O)NC1=O)C2=O (stereo not shown) [Example 18, 3-(1-amino-4-oxo-4H-thiophene[3,4-c]pyrrole-5(6H)-yl)piperidine-2,6-dione]	94%	EC50: 60 nM
CC1(N2Cc3c(csc3N)C2=O)CCC(=O)NC1=O (stereo not shown) [Example 20, 3-methyl-3-(1-amino-4-oxo-4H-thiophene[3,4-c]pyrrole-5(6H)-yl)piperidine-2,6-dione]	76%	EC50: 180 nM
O=C1CCC(N2Cc3ccsc3C2=O)C(=O)N1 (stereo not shown) [Example 33, 3-(6-oxo-4H-thiophene[3,2-c]pyrrole-5(6H)-yl)piperidine-2,6-dione]	47%	
O=C1CCC(N2C(=O)c3cscc3C2=O)CN1 (stereo not shown) [Example 34, 5-(6-oxo-piperidine-3-yl)-5H-thiophene[3,4-c]pyrrole-4,6-dione]	18%	
O=C1CCC(N2C(=O)c3ccccc3C2=O)C(=O)N1 (stereo not shown) [Thalidomide, reference compound]		inhibition at 100 µM (Homo sapiens, PBMC, compound concentration 100 μM, read-out: Inhibition Degree): 22%; EC50 (Homo sapiens, PBMC): 183000 nM

From patent US20100152240A1, “PYRROLINE-2-ONE DERIVATIVES AGAINST CELL RELEASING TUMOR NECROSIS FACTOR, PREPARATION METHODS AND USES THEREOF” (priority 2006, published 2010)
